Experiments:
[1] = target: STK10 (Homo sapiens, UniProt O94804); assay: Kinase selectivity screen; conditions: read-out: % Inhibition STK10
[2] = target: PAK2 (Homo sapiens, UniProt Q13177); assay: Kinase selectivity screen; conditions: read-out: % Inhibition PAK2
[3] = target: STK17A (Homo sapiens, UniProt Q9UEE5); assay: Kinase selectivity screen; conditions: read-out: % Inhibition STK17A
[4] = target: RPS6KA5 (Homo sapiens, UniProt O75582); assay: Kinase selectivity screen; conditions: read-out: % Inhibition RPS6KA5
[5] = target: CSNK1G1 (Homo sapiens, UniProt Q9HCP0); assay: Kinase selectivity screen; conditions: read-out: % Inhibition CSNK1G1
[6] = target: EEF2K (Homo sapiens, UniProt O00418); assay: Kinase selectivity screen; conditions: read-out: % Inhibition EEF2K
[7] = target: NUAK1 (Homo sapiens, UniProt O60285); assay: Kinase selectivity screen; conditions: read-out: % Inhibition NUAK1
[8] = target: EPHB1 (Homo sapiens, UniProt P54762); assay: Kinase selectivity screen; conditions: read-out: % Inhibition EPHB1
[9] = target: DYRK2 (Homo sapiens, UniProt Q92630); assay: Kinase selectivity screen; conditions: read-out: % Inhibition DYRK2
Sequence of DYRK2 (Q92630 whole entry, species assumed): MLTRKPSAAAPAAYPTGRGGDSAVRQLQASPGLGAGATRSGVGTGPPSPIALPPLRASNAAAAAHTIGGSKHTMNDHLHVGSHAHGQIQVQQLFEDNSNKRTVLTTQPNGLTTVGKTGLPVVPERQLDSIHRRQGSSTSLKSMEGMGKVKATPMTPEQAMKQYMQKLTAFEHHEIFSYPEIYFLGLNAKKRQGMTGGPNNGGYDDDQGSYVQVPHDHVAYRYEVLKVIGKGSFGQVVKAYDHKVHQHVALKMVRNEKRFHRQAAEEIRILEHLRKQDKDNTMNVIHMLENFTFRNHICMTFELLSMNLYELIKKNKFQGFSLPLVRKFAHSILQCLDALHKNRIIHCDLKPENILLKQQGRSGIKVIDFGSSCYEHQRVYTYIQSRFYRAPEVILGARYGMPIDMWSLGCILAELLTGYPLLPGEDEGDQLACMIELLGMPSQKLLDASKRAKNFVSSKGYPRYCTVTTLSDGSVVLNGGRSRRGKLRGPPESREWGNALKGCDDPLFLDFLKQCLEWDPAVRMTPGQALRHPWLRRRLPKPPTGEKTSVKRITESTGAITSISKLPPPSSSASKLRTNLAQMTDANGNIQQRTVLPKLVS

[10] = target: TYRO3 (Homo sapiens, UniProt Q06418); assay: Kinase selectivity screen; conditions: read-out: % Inhibition TYRO3
[11] = target: PRKCA (Homo sapiens, UniProt P17252); assay: Kinase selectivity screen; conditions: read-out: % Inhibition PRKCA
[12] = target: ROCK1 (Homo sapiens, UniProt Q13464); assay: Kinase selectivity screen; conditions: read-out: % Inhibition ROCK1
Sequence of ROCK1 (Q13464 whole entry, species assumed): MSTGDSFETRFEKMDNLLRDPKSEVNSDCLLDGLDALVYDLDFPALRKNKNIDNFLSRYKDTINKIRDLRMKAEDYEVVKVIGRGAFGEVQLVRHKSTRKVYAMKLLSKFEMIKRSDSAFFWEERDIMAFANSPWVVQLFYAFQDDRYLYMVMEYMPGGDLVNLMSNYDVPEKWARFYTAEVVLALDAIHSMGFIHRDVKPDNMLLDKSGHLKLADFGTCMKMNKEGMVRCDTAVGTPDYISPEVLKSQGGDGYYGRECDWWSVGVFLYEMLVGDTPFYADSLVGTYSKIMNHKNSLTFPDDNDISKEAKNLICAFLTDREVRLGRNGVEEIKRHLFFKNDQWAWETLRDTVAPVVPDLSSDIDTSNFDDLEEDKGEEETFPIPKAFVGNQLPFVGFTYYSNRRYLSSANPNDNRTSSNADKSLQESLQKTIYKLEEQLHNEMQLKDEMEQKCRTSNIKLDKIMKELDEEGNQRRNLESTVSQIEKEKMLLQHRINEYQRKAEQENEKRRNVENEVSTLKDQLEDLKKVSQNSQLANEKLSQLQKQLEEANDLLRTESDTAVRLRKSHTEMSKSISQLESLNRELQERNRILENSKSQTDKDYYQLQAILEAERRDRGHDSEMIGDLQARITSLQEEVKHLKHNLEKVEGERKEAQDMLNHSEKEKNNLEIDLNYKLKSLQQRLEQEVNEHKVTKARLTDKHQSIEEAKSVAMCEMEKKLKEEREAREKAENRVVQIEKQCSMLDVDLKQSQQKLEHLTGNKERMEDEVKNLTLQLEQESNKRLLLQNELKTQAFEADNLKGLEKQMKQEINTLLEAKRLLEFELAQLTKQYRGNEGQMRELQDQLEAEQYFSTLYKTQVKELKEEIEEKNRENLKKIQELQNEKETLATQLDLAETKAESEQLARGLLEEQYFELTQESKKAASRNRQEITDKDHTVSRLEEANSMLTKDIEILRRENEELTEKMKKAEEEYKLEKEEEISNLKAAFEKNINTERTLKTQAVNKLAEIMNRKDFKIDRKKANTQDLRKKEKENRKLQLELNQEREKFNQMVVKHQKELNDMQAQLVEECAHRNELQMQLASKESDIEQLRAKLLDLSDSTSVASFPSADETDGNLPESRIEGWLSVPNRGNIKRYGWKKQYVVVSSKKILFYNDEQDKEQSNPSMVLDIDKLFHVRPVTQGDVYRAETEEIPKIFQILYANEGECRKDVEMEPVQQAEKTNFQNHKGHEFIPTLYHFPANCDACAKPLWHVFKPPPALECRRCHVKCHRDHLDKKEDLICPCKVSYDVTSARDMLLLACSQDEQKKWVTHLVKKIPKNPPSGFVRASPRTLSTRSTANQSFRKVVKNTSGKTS

[13] = target: TBK1 (Homo sapiens, UniProt Q9UHD2); assay: Kinase selectivity screen; conditions: read-out: % Inhibition TBK1
Sequence of TBK1 (Q9UHD2 whole entry, species assumed): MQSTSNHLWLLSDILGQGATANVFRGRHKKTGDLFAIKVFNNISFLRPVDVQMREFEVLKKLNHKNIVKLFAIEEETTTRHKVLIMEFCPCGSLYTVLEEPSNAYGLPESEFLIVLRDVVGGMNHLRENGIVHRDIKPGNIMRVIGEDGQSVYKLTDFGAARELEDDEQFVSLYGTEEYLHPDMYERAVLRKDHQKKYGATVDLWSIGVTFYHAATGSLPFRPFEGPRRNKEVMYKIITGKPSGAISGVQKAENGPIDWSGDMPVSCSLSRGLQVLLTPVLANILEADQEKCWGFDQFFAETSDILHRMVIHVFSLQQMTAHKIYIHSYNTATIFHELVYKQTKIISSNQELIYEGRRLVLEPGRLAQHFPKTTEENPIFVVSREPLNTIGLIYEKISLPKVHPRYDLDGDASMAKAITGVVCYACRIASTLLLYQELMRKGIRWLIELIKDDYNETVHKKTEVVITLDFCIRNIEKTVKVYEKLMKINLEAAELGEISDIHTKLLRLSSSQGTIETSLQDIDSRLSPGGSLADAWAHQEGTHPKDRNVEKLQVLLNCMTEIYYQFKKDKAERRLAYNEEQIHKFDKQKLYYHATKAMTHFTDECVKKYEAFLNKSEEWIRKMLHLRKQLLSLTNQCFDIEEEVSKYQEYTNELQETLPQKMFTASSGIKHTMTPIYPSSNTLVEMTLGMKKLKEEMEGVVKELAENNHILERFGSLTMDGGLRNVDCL

[14] = target: RPS6KB1 (Homo sapiens, UniProt P23443); assay: Kinase selectivity screen; conditions: read-out: % Inhibition RPS6KB1
[15] = target: MYLK (Homo sapiens, UniProt Q15746); assay: Kinase selectivity screen; conditions: read-out: % Inhibition MYLK
[16] = target: MARK2 (Homo sapiens, UniProt Q7KZI7); assay: Kinase selectivity screen; conditions: read-out: % Inhibition MARK2
[17] = target: YES1 (Homo sapiens, UniProt P07947); assay: Kinase selectivity screen; conditions: read-out: % Inhibition YES1
[18] = target: MTOR (Homo sapiens, UniProt P42345); assay: Kinase selectivity screen; conditions: read-out: % Inhibition MTOR
[19] = target: PDGFRB (Homo sapiens, UniProt P09619); assay: Kinase selectivity screen; conditions: read-out: % Inhibition PDGFRB
[20] = target: CDK9/CCNT1 (Homo sapiens, UniProt P50750); assay: Kinase selectivity screen; conditions: read-out: % Inhibition CDK9/CCNT1
[21] = target: PIK3CA (Homo sapiens, UniProt P42336); assay: Kinase selectivity screen; conditions: read-out: % Inhibition PIK3CA
[22] = target: PRKAA2 (Homo sapiens, UniProt P54646); assay: Kinase selectivity screen; conditions: read-out: % Inhibition PRKAA2
[23] = target: MAP2K7 (Homo sapiens, UniProt O14733); assay: Kinase selectivity screen; conditions: read-out: % Inhibition MAP2K7
[24] = target: FGFR2 (Homo sapiens, UniProt P21802); assay: Kinase selectivity screen; conditions: read-out: % Inhibition FGFR2
[25] = target: ABL1 (Homo sapiens, UniProt P00519); assay: Kinase selectivity screen; conditions: read-out: % Inhibition ABL1
[26] = target: PAK7 (Homo sapiens, UniProt Q9P286); assay: Kinase selectivity screen; conditions: read-out: % Inhibition PAK7
[27] = target: MST1R (Homo sapiens, UniProt Q04912); assay: Kinase selectivity screen; conditions: read-out: % Inhibition MST1R
Sequence of MST1R (Q04912 25-1400, species assumed): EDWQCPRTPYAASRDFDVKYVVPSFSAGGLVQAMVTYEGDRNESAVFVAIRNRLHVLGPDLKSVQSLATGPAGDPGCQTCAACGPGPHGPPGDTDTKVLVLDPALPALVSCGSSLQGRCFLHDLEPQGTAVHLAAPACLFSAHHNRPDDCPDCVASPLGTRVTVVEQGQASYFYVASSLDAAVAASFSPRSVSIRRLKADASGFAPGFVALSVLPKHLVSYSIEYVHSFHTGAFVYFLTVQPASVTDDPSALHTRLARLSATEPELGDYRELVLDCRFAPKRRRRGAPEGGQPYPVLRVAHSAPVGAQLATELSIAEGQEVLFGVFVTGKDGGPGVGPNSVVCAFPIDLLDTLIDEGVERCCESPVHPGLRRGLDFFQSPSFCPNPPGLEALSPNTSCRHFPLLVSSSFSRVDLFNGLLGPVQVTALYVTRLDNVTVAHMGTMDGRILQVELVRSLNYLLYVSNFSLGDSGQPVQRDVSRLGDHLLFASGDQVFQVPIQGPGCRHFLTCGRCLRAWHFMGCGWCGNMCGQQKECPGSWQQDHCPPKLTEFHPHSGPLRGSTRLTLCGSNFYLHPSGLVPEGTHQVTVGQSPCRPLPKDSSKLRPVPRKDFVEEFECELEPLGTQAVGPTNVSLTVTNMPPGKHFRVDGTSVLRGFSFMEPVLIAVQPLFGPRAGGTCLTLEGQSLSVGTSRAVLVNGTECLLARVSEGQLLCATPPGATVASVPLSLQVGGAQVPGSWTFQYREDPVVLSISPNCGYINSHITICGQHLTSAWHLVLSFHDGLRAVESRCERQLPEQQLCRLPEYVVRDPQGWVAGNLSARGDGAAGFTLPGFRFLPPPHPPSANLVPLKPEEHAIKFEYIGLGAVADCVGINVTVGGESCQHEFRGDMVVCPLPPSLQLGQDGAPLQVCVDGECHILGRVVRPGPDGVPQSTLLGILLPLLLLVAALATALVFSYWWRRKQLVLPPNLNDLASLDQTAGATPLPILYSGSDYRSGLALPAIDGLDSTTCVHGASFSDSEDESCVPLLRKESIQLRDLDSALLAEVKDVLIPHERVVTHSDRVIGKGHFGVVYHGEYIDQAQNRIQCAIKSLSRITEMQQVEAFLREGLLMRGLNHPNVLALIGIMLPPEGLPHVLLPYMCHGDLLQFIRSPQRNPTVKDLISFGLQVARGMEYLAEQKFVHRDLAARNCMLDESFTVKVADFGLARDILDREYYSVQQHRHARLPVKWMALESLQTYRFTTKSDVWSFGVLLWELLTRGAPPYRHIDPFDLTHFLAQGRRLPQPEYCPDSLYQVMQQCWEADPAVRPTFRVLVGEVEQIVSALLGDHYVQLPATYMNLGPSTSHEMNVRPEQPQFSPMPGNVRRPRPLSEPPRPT

[28] = target: BMX (Homo sapiens, UniProt P51813); assay: Kinase selectivity screen; conditions: read-out: % Inhibition BMX
[29] = target: AURKC (Homo sapiens, UniProt Q9UQB9); assay: Kinase selectivity screen; conditions: read-out: % Inhibition AURKC
Sequence of AURKC (Q9UQB9 whole entry, species assumed): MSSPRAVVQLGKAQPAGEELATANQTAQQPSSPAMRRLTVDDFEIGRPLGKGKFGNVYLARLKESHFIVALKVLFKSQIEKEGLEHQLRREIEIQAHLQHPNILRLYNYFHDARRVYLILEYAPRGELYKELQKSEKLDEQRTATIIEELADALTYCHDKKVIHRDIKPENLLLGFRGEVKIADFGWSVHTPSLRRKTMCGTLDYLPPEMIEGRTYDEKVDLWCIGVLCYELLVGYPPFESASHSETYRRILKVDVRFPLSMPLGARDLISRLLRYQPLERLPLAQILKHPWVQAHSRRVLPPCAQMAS

[30] = target: PDPK1 (Homo sapiens, UniProt O15530); assay: Kinase selectivity screen; conditions: read-out: % Inhibition PDPK1
Sequence of PDPK1 (O15530 whole entry, species assumed): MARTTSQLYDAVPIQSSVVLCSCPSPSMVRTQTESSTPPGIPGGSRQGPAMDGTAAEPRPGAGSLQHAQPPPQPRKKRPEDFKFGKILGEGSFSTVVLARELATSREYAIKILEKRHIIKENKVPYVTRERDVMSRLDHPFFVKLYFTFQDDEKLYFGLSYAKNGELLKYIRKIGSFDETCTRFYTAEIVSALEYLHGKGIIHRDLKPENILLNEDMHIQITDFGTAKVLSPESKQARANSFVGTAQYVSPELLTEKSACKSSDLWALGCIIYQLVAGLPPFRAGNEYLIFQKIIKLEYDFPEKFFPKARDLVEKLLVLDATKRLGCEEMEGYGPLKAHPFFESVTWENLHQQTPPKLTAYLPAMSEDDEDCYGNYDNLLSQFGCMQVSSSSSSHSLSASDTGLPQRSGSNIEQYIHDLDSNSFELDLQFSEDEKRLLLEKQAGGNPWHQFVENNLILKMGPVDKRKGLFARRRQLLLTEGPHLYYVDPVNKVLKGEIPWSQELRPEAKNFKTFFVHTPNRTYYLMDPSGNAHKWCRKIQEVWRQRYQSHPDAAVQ

[31] = target: PRKACA (Homo sapiens, UniProt P17612); assay: Kinase selectivity screen; conditions: read-out: % Inhibition PRKACA
[32] = target: FLT3 (Homo sapiens, UniProt P36888); assay: Kinase selectivity screen; conditions: read-out: % Inhibition FLT3
[33] = target: CSNK2A2 (Homo sapiens, UniProt P19784); assay: Kinase selectivity screen; conditions: read-out: % Inhibition CSNK2A2
[34] = target: Full-length human MNK2 (Homo sapiens, UniProt Q9HBH9, T379D); assay: MNK2 biochemical IC50 assay (Caliper mobility shift)

CC(C)Oc1cc(F)ccc1Nc1ncnc2cc(C(=O)NCCCN(C)C)n(C)c12 [Example 40, N-[3-(dimethylamino)propyl]-4-{[4-fluoro-2-(propan-2-yloxy)phenyl]amino}-5-methyl-5H-pyrrolo[3,2-d]pyrimidine-6-carboxamide]
0%: inhibition at 1 µM [1] | inhibition at 1 µM [2] | inhibition at 1 µM [4] | inhibition at 1 µM [5] | inhibition at 1 µM [6] | inhibition at 1 µM [7] | inhibition at 1 µM [8] | inhibition at 1 µM [10] | inhibition at 1 µM [12] | inhibition at 1 µM [13] | inhibition at 1 µM [14] | inhibition at 1 µM [15] | inhibition at 1 µM [16] | inhibition at 1 µM [17] | inhibition at 1 µM [18] | inhibition at 1 µM [20] | inhibition at 1 µM [22] | inhibition at 1 µM [23] | inhibition at 1 µM [24] | inhibition at 1 µM [25] | inhibition at 1 µM [26] | inhibition at 1 µM [27] | inhibition at 1 µM [28] | inhibition at 1 µM [30] | inhibition at 1 µM [31] | inhibition at 1 µM [33]
28%: inhibition at 1 µM [29]
8%: inhibition at 1 µM [9]
5%: inhibition at 1 µM [11] | inhibition at 1 µM [19] | inhibition at 1 µM [21]
24%: inhibition at 1 µM [32]
2%: inhibition at 1 µM [3]
39.8 nM: IC50 [34]
